Assay results: patent US4396615A, “Method of treating androgen-related disorders” (Duke University, priority 1981, dated 1983)
“And” between values parts separate entries of the source, which are not always exact repeats. Identical values can stand only once.

Columns and labels:
5α-reductase [1] = test: 5α-reductase assay of Moore and Wilson, with or without preincubation of enzyme with inhibitor and NADPH; type: biochemical; conditions: for potency as inhibitor of the enzyme relative to progesterone: assay of Moore and Wilson; for Picomol Testosterone reduced/mg protein in 45 min + SEM: assay 45 min: inhibitor 5 × 10^-8, testosterone 5 × 10^-8, NADPH 5 × 10^-4 M; for manner of combination with / inactivation of the enzyme: in the presence of the co-factor NADPH; for Picomol Testosterone Reduced/mg protein in 45 min: assay 45 min: progesterone 5 × 10^-8, NADPH 5 × 10^-4, testosterone 5 × 10^-8
Source text: Employing the assay of R. J. Moore and J. D. Wilson [Methods in Enzymology, Vol. XXXVI, Academic Press, N.Y., Ed. W. O'Malley and G. Hardman, p.

[2] = tested on: 5α-reductase in cell-culture preparations of human prostate; conditions: cited from earlier work
5α-reductase [3] = conditions: well-known, prior art; cited from earlier work
5α-reductase [4] = conditions: preparations of human benign prostatic hypertrophic tissue; cited from earlier work
sebum secretion = conditions: topical administration of a 0.5% solution in aqueous ethanol; cited from earlier work

| Compound | potency as inhibitor of the enzyme relative to progesterone (5α-reductase [1]) | Picomol Testosterone reduced/mg protein in 45 min + SEM (5α-reductase [1]; A: preincubation 15 min with inhibitor 5 × 10^-7 M and NADPH 6 × 10^-5 M) | Picomol Testosterone reduced/mg protein in 45 min + SEM (5α-reductase [1]; B: preincubation 15 min with inhibitor 0 and NADPH 6 × 10^-5 M) | Picomol Testosterone reduced/mg protein in 45 min + SEM (5α-reductase [1]; C: preincubation 15 min with inhibitor 0 and NADPH 0) | Picomol Testosterone reduced/mg protein in 45 min + SEM (5α-reductase [1]; D: preincubation 15 min with inhibitor 5 × 10^-7 M and NADPH 0) | Picomol Testosterone reduced/mg protein in 45 min + SEM (5α-reductase [1]; F: no preincubation) | Ki (5α-reductase [1]; first phase, from plot of t1/2 against 1/[Inhibitor] (FIG. 2), read-out: Ki of reversible combination of enzyme and inhibitor) [nM] | manner of combination with / inactivation of the enzyme (5α-reductase [1]) | time course of inactivation of the enzyme (5α-reductase [1]; incubation of enzyme with NADPH and inhibitor (FIG. 1)) | enzyme activity lost (5α-reductase [1]; preincubation of enzyme with compound and NADPH, diluted tenfold, then assayed) [%] | rate constant of irreversible combination (kcat) (5α-reductase [1]; second phase, enzyme-inhibitor complex rendered inactive) [s⁻¹] | effect on growth of the tissue [2] | inhibition of the enzyme in cell-culture preparations of human prostate [2] | type of inhibition of the enzyme (5α-reductase [3]) | Picomol Testosterone Reduced/mg protein in 45 min (5α-reductase [1]; 1: preincubation 15 min with progesterone 0 and NADPH 6 × 10^-5) | Picomol Testosterone Reduced/mg protein in 45 min (5α-reductase [1]; 2: preincubation 15 min with progesterone 5 × 10^-7 and NADPH 6 × 10^-5) | Picomol Testosterone Reduced/mg protein in 45 min (5α-reductase [1]; 4: no preincubation) | enzyme inactivation on preincubation (5α-reductase [1]; preincubation of enzyme with compound and NADPH) | conversion of testosterone to dihydrotestosterone (5α-reductase [4]) | males with acne showing an important decrease in sebum secretion (sebum secretion) |
| --- | --- | --- | --- | --- | --- | --- | --- | --- | --- | --- | --- | --- | --- | --- | --- | --- | --- | --- | --- | --- |
| C=C1C[C@H]2[C@@H]3CC[C@H](C(C)=O)[C@@]3(C)CC[C@@H]2[C@@]2(C)CCC(=O)C=C12 [6-methyleneprogesterone] | equipotent with progesterone | – | – | – | – | – | – | – | – | – | – | – | – | – | – | – | – | – | – | – |
| C=C1C[C@@H]2[C@H](CC[C@@]3(C)[C@H]2CC[C@]3(OC(C)=O)C(C)=O)[C@@]2(C)CCC(=O)C=C12 [17α-acetoxy-6-methyleneprogesterone] | equipotent with progesterone | 0.71 ± 0.018 Picomol Testosterone reduced/m | 3.0 ± 0.26 Picomol Testosterone reduced/m | 2.83 ± 0.09 Picomol Testosterone reduced/m | 2.63 ± 0.18 Picomol Testosterone reduced/m | 3.14 ± 0.20 Picomol Testosterone reduced/m | 1250 | irreversible manner | pseudo first-order kinetics | 75 | 0.0048 | – | – | – | – | – | – | – | – | – |
| CC(=O)[C@H]1CC[C@H]2[C@@H]3CCC4=CC(=O)CC[C@]4(C)[C@H]3CC[C@]12C [progesterone] | – | – | – | – | – | – | – | competitive and reversible | – | – | – | inhibiting growth of the tissue | strongly inhibits the enzyme | reversible and competitive inhibitor | 3.91 Picomol Testosterone Reduced/m and 3.41 Picomol Testosterone Reduced/m | 3.91 Picomol Testosterone Reduced/m and 3.79 Picomol Testosterone Reduced/m | 3.66 Picomol Testosterone Reduced/m and 3.54 Picomol Testosterone Reduced/m | does not result in enzyme inactivation | Inhibition of the conversion of testosterone to dihydrotestosterone | 45/53 |
